Strand notation (5' to 3'): a small letter for the sugar, then the base; units joined by * are phosphorothioate-linked, units joined directly phosphodiester-linked; [ ] holds rarer units or linkages, { } end groups; capitals alone tell only the bases. e = 2'-O-(2-methoxyethyl) (MOE); [5mC] = 5-methylcytosine; d = 2'-deoxy (DNA)
What was measured:
human PKK mRNA [1] = test: Antisense inhibition of human PKK mRNA in HepaRG cells, 3,000 nM (Example 1); assay type: cell-based; conditions: relative to untreated control cells
Outline: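 HepaRG cells, 20,000 per well, were electroporated with 3,000 nM 5-10-5 MOE gapmer (phosphorothioate, 5-methylcytosine). After about 24 h, PKK mRNA was measured by qRT-PCR with primer probe set RTS3454 and normalised to RIBOGREEN total RNA. Values are percent inhibition versus untreated cells.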

human PKK mRNA [2] = test: Dose-dependent antisense inhibition of human PKK in HepaRG cells, 0.12-10.00 uM (Example 4); assay type: cell-based; conditions: electroporation, ~16 h
Experimental: Cells were plated at a density of 20,000 cells per well and transfected using electroporation with 0.12 μM, 0.37 μM, 1.11 μM, 3.33 μM, and 10.00 μM concentrations of antisense oligonucleotide. After a treatment period of approximately 16 hours, RNA was isolated from the cells and PKK mRNA levels were measured by quantitative real-time PCR. Human PKK primer probe set RTS3454 was used to measure mRNA levels. PKK mRNA levels were adjusted according to total RNA content, as measured by RIBOGREEN®. The antisense oligonucleotides were tested in a series of experiments that had similar culture conditions. Results are presented as percent inhibition of PKK, relative to untreated control cells.
The half maximal inhibitory concentration (IC50) of each oligonucleotide is also presented.

[3] = Table 3, HepaRG cells, electroporation with 3,000 nM antisense oligonucleotide, approx. 24 hours, PKK mRNA by RT-PCR (RTS3454)
[4] = Table 1, PKK mRNA, HepaRG cells, 3,000 nM, electroporation, ~24 h
[5] = Table 2, PKK mRNA, HepaRG cells, 3,000 nM, electroporation, ~24 h
[6] = Table 4, HepaRG cells, electroporation with 3,000 nM antisense oligonucleotide, approx. 24 hours, PKK mRNA by RT-PCR (RTS3454)

| Substance | % inhibition (human PKK mRNA [1]; [3]) [%] | percent inhibition of PKK at 0.12 μM (human PKK mRNA [2]; Table 33, 0.12 μM) [%] | percent inhibition of PKK at 0.37 μM (human PKK mRNA [2]; Table 33, 0.37 μM) [%] | percent inhibition of PKK at 1.11 μM (human PKK mRNA [2]; Table 33, 1.11 μM) [%] | percent inhibition of PKK at 3.33 μM (human PKK mRNA [2]; Table 33, 3.33 μM) [%] | percent inhibition of PKK at 10.00 μM (human PKK mRNA [2]; Table 33, 10.00 μM) [%] | IC50 (human PKK mRNA [2]; Table 33, PKK mRNA) [nM] | % inhibition (human PKK mRNA [1]; [4]) [%] | percent inhibition of PKK at 0.12 μM (human PKK mRNA [2]; Table 32, 0.12 μM) [%] | percent inhibition of PKK at 0.37 μM (human PKK mRNA [2]; Table 32, 0.37 μM) [%] | percent inhibition of PKK at 1.11 μM (human PKK mRNA [2]; Table 32, 1.11 μM) [%] | percent inhibition of PKK at 3.33 μM (human PKK mRNA [2]; Table 32, 3.33 μM) [%] | percent inhibition of PKK at 10.00 μM (human PKK mRNA [2]; Table 32, 10.00 μM) [%] | IC50 (human PKK mRNA [2]; Table 32, PKK mRNA) [nM] | % inhibition (human PKK mRNA [1]; [5]) [%] | % inhibition (human PKK mRNA [1]; [6]) [%] |
| --- | --- | --- | --- | --- | --- | --- | --- | --- | --- | --- | --- | --- | --- | --- | --- | --- |
| 531110 (antisense eG*e[5mC]*e[5mC]*eT*eG*dT*dT*dT*dG*dG*dT*dG*dG*dT*d[5mC]*eT*e[5mC]*eT*eT*e[5mC]) [compound 531110] | 86 | 14 | 29 | 49 | 76 | 85 | 1100 |  |  |  |  |  |  |  |  |  |
| 530959 (antisense eT*e[5mC]*eA*eA*e[5mC]*dA*d[5mC]*dT*dG*d[5mC]*dT*dA*dA*d[5mC]*d[5mC]*eT*eT*eA*eG*eA) [compound 530959] |  |  |  |  |  |  |  | 60 | 12 | 27 | 53 | 80 | 94 | 900 |  |  |
| 531123 (antisense eT*e[5mC]*e[5mC]*e[5mC]*eA*dG*d[5mC]*dT*d[5mC]*d[5mC]*dA*dG*dT*d[5mC]*dA*e[5mC]*e[5mC]*eA*e[5mC]*e[5mC]) [compound 531123] | 74 | 14 | 43 | 51 | 71 | 64 | 900 |  |  |  |  |  |  |  |  |  |
| 530970 (antisense eT*eT*eG*eG*eT*dG*dT*dG*d[5mC]*d[5mC]*dA*d[5mC]*dT*dT*dT*e[5mC]*eA*eG*eA*eT) [compound 530970] |  |  |  |  |  |  |  | 74 | 1 | 0 | 66 | 76 | 84 | 1000 |  |  |
| 531071 (e[5mC]*eT*eG*e[5mC]*eT*d[5mC]*dT*dG*dT*dG*dT*dT*dT*dT*d[5mC]*eT*e[5mC]*eT*eA*eA; antisense) [compound 531071] |  | 23 | 37 | 56 | 83 | 83 | 700 |  |  |  |  |  |  |  | 73 |  |
| 531232 (e[5mC]*eT*eG*eT*eA*d[5mC]*dT*dA*dG*dT*dT*dT*d[5mC]*d[5mC]*dT*eA*eT*eA*eA*e[5mC]; antisense) [compound 531232] |  | 15 | 26 | 40 | 62 | 76 | 1700 |  |  |  |  |  |  |  |  | 85 |
| 531022 (eG*eT*eA*eA*eT*dG*dT*d[5mC]*dT*dG*dA*d[5mC]*dA*dG*dA*eT*eT*eT*eA*eA; antisense) [compound 531022] |  |  |  |  |  |  |  |  | 0 | 0 | 32 | 62 | 77 | 2200 | 74 |  |
| 530988 (eT*e[5mC]*e[5mC]*eA*eA*dA*dG*dT*d[5mC]*dA*dA*d[5mC]*dT*d[5mC]*d[5mC]*e[5mC]*eG*eG*eG*eT; antisense) [compound 530988] |  |  |  |  |  |  |  | 76 | 0 | 25 | 54 | 86 | 78 | 900 |  |  |
| 531005 (e[5mC]*eT*e[5mC]*eA*eA*dA*dG*dA*dG*dT*dA*dA*d[5mC]*d[5mC]*dA*eG*eA*eG*e[5mC]*eT; antisense) [compound 531005] |  |  |  |  |  |  |  | 76 | 14 | 28 | 61 | 73 | 77 | 900 |  |  |
| 531055 (antisense e[5mC]*e[5mC]*e[5mC]*eT*eT*d[5mC]*dT*dT*dT*dA*dT*dA*dG*d[5mC]*d[5mC]*eA*eG*e[5mC]*eA*e[5mC]) [compound 531055] |  | 3 | 28 | 64 | 76 | 81 | 900 |  |  |  |  |  |  |  | 68 |  |
| 531121 (antisense eT*eT*eG*eG*eT*d[5mC]*dT*dA*d[5mC]*dA*dG*dA*dT*dT*d[5mC]*eA*eA*eT*eG*e[5mC]) [compound 531121] | 72 | 0 | 13 | 47 | 69 | 79 | 1500 |  |  |  |  |  |  |  |  |  |
| 531234 (e[5mC]*eA*e[5mC]*eT*eG*dT*dA*d[5mC]*dT*dA*dG*dT*dT*dT*d[5mC]*e[5mC]*eT*eA*eT*eA; antisense) [compound 531234] |  | 24 | 21 | 47 | 72 | 82 | 1400 |  |  |  |  |  |  |  |  | 86 |
| 530967 (antisense e[5mC]*eA*eA*e[5mC]*e[5mC]*dA*dA*dT*dT*dT*d[5mC]*dT*dG*dA*dA*eA*eG*eG*eG*e[5mC]) [compound 530967] |  |  |  |  |  |  |  | 69 | 30 | 36 | 48 | 82 | 91 | 700 |  |  |
| 531026 (antisense eA*eT*e[5mC]*eA*eT*dG*dA*dT*dT*d[5mC]*d[5mC]*d[5mC]*dT*dT*d[5mC]*eT*eG*eA*eG*eA) [compound 531026] |  | 23 | 26 | 49 | 75 | 85 | 1000 |  |  |  |  |  |  |  | 73 |  |
| 530971 (antisense eG*eG*eA*eA*e[5mC]*dT*dT*dG*dG*dT*dG*dT*dG*d[5mC]*d[5mC]*eA*e[5mC]*eT*eT*eT) [compound 530971] |  |  |  |  |  |  |  | 85 | 12 | 40 | 52 | 66 | 70 | 1300 |  |  |

From patent US11840686B2, “Modulation of prekallikrein (PKK) expression” (Ionis Pharmaceuticals, Inc., priority 2013, dated 2023)
